The source of these data is patent publication US20130217678A1, “PHARMACEUTICAL AGENT COMPRISING QUINOLONE COMPOUND” (OTSUKA PHARMACEUTICAL CO., LTD., priority 2008, published 2013).

Molecules are shown by their SMILES.

A word on the melting point: it is the temperature of the solid-liquid transition. Molecule `COCCN(C)c1ccc(C)c2c(=O)c(-c3ccc(OC)cc3)c[nH]c12.Cl` had a melting point of 90 to 93 °C.

`CCCOc1cccc2c(=O)c(-c3cccc4ccccc34)c[nH]c12` had a melting point of 255 to 256 °C.

For `CCCOc1cccc2c(=O)c(-c3ccc(OC)c(OC)c3)c[nH]c12` [Example 14, 3-(3,4-Dimethoxyphenyl)-8-propoxy-1H-quinolin-4-one], the melting point lay within 210 to 211 °C. The result for `CCCOc1cccc2c(=O)c(-c3ccncc3)c[nH]c12` [Example 15, 8-Propoxy-3-pylidine-4-yl-1H-quinolin-4-one] reads 259 to 260 °C. `CCCOc1cccc2c(=O)c(-c3ccc(OC)cc3OC)c[nH]c12` [Example 16, 3-(2,4-Dimethoxyphenyl)-8-propoxy-1H-quinolin-4-one] showed a melting point of 231 to 232 °C. In turn, `CCCOc1cccc2c(=O)c(-c3ccc(OC)cc3C)c[nH]c12` [Example 19, 3-(4-Methoxy-2-methylphenyl)-8-propoxy-1H-quinolin-4-one] showed a melting point of 214 to 215 °C. In turn, `CCCOc1ccc(-c2ccccc2)c2c(=O)c(-c3ccc(OC)cc3)c[nH]c12` [Example 22, 3-(4-Methoxyphenyl)-5-phenyl-8-propoxy-1H-quinolin-4-one] registered a melting point of 186 to 187 °C. The result for `CCOc1ccc(OCC)c2c(=O)c(-c3ccc(OC)cc3)c[nH]c12` [Example 25, 5,8-Diethoxy-3-(4-methoxyphenyl)-1H-quinolin-4-one] reads 182 to 183 °C; that for `CCCOc1cccc2c(=O)c(-c3ccc(Cl)cc3Cl)c[nH]c12` [Example 27, 3-(2,4-Dichlorophenyl)-8-propoxy-1H-quinolin-4-one], 189 °C. The result for `CCCOc1cccc2c(=O)c(-c3c(Cl)cccc3Cl)c[nH]c12` [Example 28, 3-(2,6-Dichlorophenyl)-8-propoxy-1H-quinolin-4-one] reads 193 °C; that for `CCCOc1cccc2c(=O)c(-c3ccc(F)cc3Cl)c[nH]c12` [Example 29, 3-(2-Chloro-4-fluorophenyl)-8-propoxy-1H-quinolin-4-one], 230 °C. On to `CCCOc1cccc2c(=O)c(-c3c(F)cccc3Cl)c[nH]c12` [Example 30, 3-(2-Chloro-6-fluorophenyl)-8-propoxy-1H-quinolin-4-one], for which the melting point is 250 °C. In turn, `CCCOc1cccc2c(=O)c(-c3cc(OC)ccc3OC)c[nH]c12` [Example 31, 3-(2,5-Dimethoxyphenyl)-8-propoxy-1H-quinolin-4-one] returned a melting point of 175 °C. On to `CCCOc1cccc2c(=O)c(-c3c(F)c(F)c(F)c(F)c3F)c[nH]c12` [Example 33, 3-Pentafluorophenyl-8-propoxy-1H-quinolin-4-one], for which the melting point was 160 °C. The result for `CCOc1cc(NC(=O)c2ccccc2)c(OCC)c2c(=O)c(-c3ccc(OC)cc3)c[nH]c12` [Example 35, N-[5,8-Diethoxy-3-(4-methoxyphenyl)-4-oxo-1,4-dihydroquinolin-6-yl]-benzamide] reads 120 to 121 °C; that for `CCCOc1cc(C)cc2c(=O)c(-c3ccc(OC)cc3)c[nH]c12` [Example 36, 3-(4-Methoxyphenyl)-6-methyl-8-propoxy-1H-quinolin-4-one], 161 to 162 °C; that for `CCCOc1cccc2c(=O)c(-c3ccccc3OC)c[nH]c12` [Example 39, 3-(2-Methoxyphenyl)-8-propoxy-1H-quinolin-4-one], 218 to 220 °C. `CCCOc1ccc(OC)c2c(=O)c(-c3ccccc3OC)c[nH]c12` [Example 40, 5-Methoxy-3-(2-methoxyphenyl)-8-propoxy-1H-quinolin-4-one]: the melting point was 239 to 241 °C. Turning to `CCCOc1cccc2c(=O)c(-c3cccc(OC)c3OC)c[nH]c12` [Example 41, 3-(2,3-Dimethoxyphenyl)-8-propoxy-1H-quinolin-4-one], the melting point was 253 to 255 °C.

Regarding `CCCOc1ccc(OC)c2c(=O)c(-c3cccc(OC)c3OC)c[nH]c12` [Example 42, 3-(2,3-Dimethoxyphenyl)-5-methoxy-8-propoxy-1H-quinolin-4-one], the melting point was 145 to 148 °C. In the case of `CCCOc1ccc(OC)c2c(=O)c(-c3cc(OC)ccc3OC)c[nH]c12` [Example 43, 3-(2,5-Dimethoxyphenyl)-5-methoxy-8-propoxy-1H-quinolin-4-one] it was 179 to 180 °C; in that of `CCOc1ccc(OC)c2c(=O)c(-c3ccc(OC)cc3)c[nH]c12` [Example 45, 8-Ethoxy-5-methoxy-3-(4-methoxyphenyl)-1H-quinolin-4-one], 117 to 119 °C; in that of `COc1ccc(-c2c[nH]c3c(OC(C)C)ccc(OC)c3c2=O)cc1` [Example 46, 8-Isopropoxy-5-methoxy-3-(4-methoxyphenyl)-1H-quinolin-4-one], 213 to 214 °C.

As to `COc1ccc(-c2c[nH]c3c(OCC(C)C)ccc(OC)c3c2=O)cc1` [Example 47, 8-Isobutoxy-5-methoxy-3-(4-methoxyphenyl)-1H-quinolin-4-one], the melting point was in the range of 242 to 244 °C.

In turn, `CCCOc1c(F)ccc2c(=O)c(-c3ccc(OC)cc3)c[nH]c12` [Example 48, 7-Fluoro-3-(4-methoxyphenyl)-8-propoxy-1H-quinolin-4-one] yielded a melting point of 160 to 161 °C. As for `CCCOc1ccc(CC)c2c(=O)c(-c3ccc(OC)cc3)c[nH]c12` [Example 49, 5-Ethyl-3-(4-methoxyphenyl)-8-propoxy-1H-quinolin-4-one], the melting point lay in the range of 169 to 170 °C. `CCCOc1ccc(C)c2c(=O)c(-c3ccccc3C)c[nH]c12` [Example 50, 5-Methyl-8-propoxy-3-o-tolyl-1H-quinolin-4-one] returned a melting point of 201 to 202 °C. On to `CCCOc1ccc(C)c2c(=O)c(-c3ccccc3OC)c[nH]c12` [Example 52, 3-(2-Methoxyphenyl)-5-methyl-8-propoxy-1H-quinolin-4-one], for which the melting point lay in the range of 221 to 223 °C. In the case of `CCCOc1ccc(C)c2c(=O)c(-c3cccc(OC)c3OC)c[nH]c12` [Example 53, 3-(2,3-Dimethoxyphenyl)-5-methyl-8-propoxy-1H-quinolin-4-one] it was 170 to 171 °C; in that of `CCCOc1cccc2c(=O)c(-c3ccccc3Br)c[nH]c12` [Example 54, 3-(2-Bromophenyl)-8-propoxy-1H-quinolin-4-one], 200 to 203 °C; in that of `CCCOc1cccc2c(=O)c(-c3cccc(Br)c3)c[nH]c12` [Example 55, 3-(3-Bromophenyl)-8-propoxy-1H-quinolin-4-one], 107 to 108 °C. In turn, `CCCOc1cccc2c(=O)c(-c3cccc(-c4ccc(OC)cc4OC)c3)c[nH]c12` [Example 56, 3-(2′,4′-Dimethoxybiphenyl-3-yl)-8-propoxy-1H-quinolin-4-one] gave a melting point of 81 to 84 °C.

On to `CCCOc1ccc(C)c2c(=O)c(-c3ccc(Cl)cc3Cl)c[nH]c12` [Example 57, 3-(2,4-Dichlorophenyl)-5-methyl-8-propoxy-1H-quinolin-4-one], for which the melting point is 103 to 106 °C.

`CCCOc1cccc2c(=O)c(-c3cccc(-c4ccc(C)cc4)c3)c[nH]c12` [Example 59, 3-(4′-Methylbiphenyl-3-yl)-8-propoxy-1H-quinolin-4-one] displayed a melting point of 189 to 193 °C.

`CCCOc1ccc(C)c2c(=O)c(-c3cccs3)c[nH]c12` [Example 61, 5-Methyl-8-propoxy-3-thiophen-2-yl-1H-quinolin-4-one] displayed a melting point of 104 to 105 °C. `CCCOc1ccc(C)c2c(=O)c(-c3cn(C)c4ccccc34)c[nH]c12` [Example 62, 5-Methyl-3-(1-methyl-1H-indol-3-yl)-8-propoxy-1H-quinolin-4-one] came in with a melting point of 106 to 109 °C.

On to `CCCOc1ccc(C)c2c(=O)c(-c3sc4ccccc4c3C)c[nH]c12` [Example 66, 5-Methyl-3-(3-methylbenzo[b]thiophen-2-yl)-8-propoxy-1H-quinolin-4-one], for which the melting point lay within 90 to 92 °C. The molecule `COc1ccc(-c2c[nH]c3c(OCC4CC4)ccc(C)c3c2=O)cc1` [Example 69, 8-Cyclopropylmethoxy-3-(4-methoxyphenyl)-5-methyl-1H-quinolin-4-one] returned a melting point of 182 to 183 °C. Turning to `CCc1nccn1-c1ccc(C)c2c(=O)c(-c3ccc(OC)cc3)c[nH]c12` [Example 71, 8-(2-Ethylimidazol-1-yl)-3-(4-methoxyphenyl)-5-methyl-1H-quinolin-4-one], the melting point was 258 to 260 °C.

`CCCN(C)c1ccc(C)c2c(=O)c(-c3ccc(OC)cc3)c[nH]c12` [Example 72, 3-(4-Methoxyphenyl)-5-methyl-8-(methyl-propyl-amino)-1H-quinolin-4-one] returned a melting point of 159 to 161 °C. Molecule `COc1ccc(-c2c[nH]c3c(N4CCOCC4)ccc(C)c3c2=O)cc1` [Example 73, 3-(4-Methoxyphenyl)-5-methyl-8-morpholin-4-yl-1H-quinolin-4-one] had a melting point of 260 to 263 °C. The result for `CCCOc1ccc(C)c2c(=O)c(-c3ccc(O)cc3)c[nH]c12` [Example 74, 3-(4-Hydroxyphenyl)-5-methyl-8-propoxy-1H-quinolin-4-one] reads 265 to 267 °C; that for `Cc1ccc(O)c2[nH]cc(-c3ccc(O)cc3)c(=O)c12` [Example 75, 8-Hydroxy-3-(4-hydroxyphenyl)-5-methyl-1H-quinolin-4-one], 270 to 275 °C (dec.). For `CCCCc1ccc(C)c2c(=O)c(-c3ccc(OC)cc3)c[nH]c12` [Example 76, 8-Butyl-3-(4-methoxyphenyl)-5-methyl-1H-quinolin-4-one], the melting point fell in the range of 186 to 188 °C.

As to `COc1ccc(-c2c[nH]c3c(N4CCN(C)CC4)ccc(C)c3c2=O)cc1` [Example 77, 3-(4-Methoxyphenyl)-5-methyl-8-(4-methylpiperazin-1-yl)-1H-quinolin-4-one], the melting point is 214 to 215 °C. Consider `CCCOc1ccc(C)c2c(=O)c(-c3ccc(OC)cc3OCC)c[nH]c12` [Example 78, 3-(2-Ethoxy-4-methoxyphenyl)-5-methyl-8-propoxy-1H-quinolin-4-one], for which the melting point lay within 191 to 192 °C.
